According to ChEMBL document CHEMBL5338747, “Discovery of Quaternized Pyridine-Thiazole-Pleuromutilin Derivatives with Broad-Spectrum Antibacterial and Potent Anti-MRSA Activity” (J Med Chem, 2023):
Calls of active or inactive are those of the source. The calls are words filed in the database; no cut-off is given here.

Key:
[1] = test system: Mycoplasmoides pneumoniae; experiment: Anti-mycoplasma activity against Mycoplasma pneumoniae M129 ATCC15531 assessed as inhibition of mycoplasma growth measured after 7 days by broth microdilution method; assay type: functional; conditions: M129 ATCC15531, 168 h, time 7 day
[2] = test system: Staphylococcus aureus; experiment: Bactericidal activity against methicillin-resistant Staphylococcus aureus ATCC 33591 assessed as reduction in bacterial colonies formation at MIC incubated for 24 hrs in MHB followed by culturing on agar plate for 24 hrs by time-kill kinetics based analysis; assay type: functional; conditions: time 48 hrs
[3] = test system: Mycoplasma genitalium; experiment: Anti-mycoplasma activity against Mycoplasma genitalium G37 ATCC33530 assessed as inhibition of mycoplasma growth measured after 7 days by broth microdilution method; assay type: functional; conditions: Mycoplasmoides genitalium, G37 ATCC33530, 168 h; time 7 day
[4] = test system: Cell membrane; experiment: Disruption of bacterial cell membrane in methicillin-resistant Staphylococcus aureus ATCC 33591 assessed as increase in fluorescence intensity at 8XMIC measured within 3 mins by DiBAC4(3) dye based fluorescence analysis relative to control; assay type: subcellular
[5] = MRT in Sprague-Dawley rat at 1 mg/kg, iv by LC-MS analysis; assay type: ADME, organism-based; conditions: in vivo
[6] = Cytotoxicity against human HepG2 cells assessed as reduction in cell viability measured after 48 hrs by CCK8 assay; assay type: toxicity, cell-based
[7] = test system: Cell membrane; experiment: Disruption of bacterial cell membrane in Escherichia coli ATCC 25922 assessed as increase in fluorescence intensity by DiBAC4(3) dye based fluorescence analysis; assay type: subcellular
[8] = test system: Cell membrane; experiment: Disruption of bacterial cell membrane in Escherichia coli ATCC 25922 assessed as increase in red fluorescence intensity at MIC incubated for 2 hrs by MycoLightGreen1198/PI staining based confocal laser scanning microscopy
[9] = test system: Staphylococcus aureus; experiment: Antibacterial activity against methicillin-resistant Staphylococcus aureus ATCC 33591 infected in Kunming mouse assessed as animal survival rate at 5 mg/kg, ip for 7 days starting from 1 hr post-infection; assay type: functional; conditions: ATCC 33591, 168 h, time 7 day
[10] = test system: Staphylococcus aureus; experiment: Potency index, ratio of moxifloxacin MIC to test compound MIC for antibacterial activity against methicillin-resistant Staphylococcus aureus 171; assay type: functional
[11] = Tmax in Sprague-Dawley rat at 1 mg/kg, iv by LC-MS analysis; assay type: ADME, organism-based; conditions: in vivo
[12] = test system: Staphylococcus aureus; experiment: Antibacterial activity against methicillin-resistant Staphylococcus aureus ATCC 33591 infected in Kunming mouse assessed as reduction in number of inflammatory cells in liver at 10 mg/kg, ip for 2 days starting from 1 hr post-infection by hematoxylin-eosin staining based analysis; assay type: functional, organism-based; conditions: time 2.0 day
[13] = test system: Staphylococcus aureus; experiment: Antibacterial activity against methicillin-resistant Staphylococcus aureus ATCC 33591 infected in Kunming mouse assessed as reduction in bacterial load in kidney at 5 to 10 mg/kg, ip for 2 days starting from 1 hr post-infection by hematoxylin-eosin staining based analysis; assay type: functional, organism-based; conditions: dose 5-10 mg/kg, time 2.0 day
[14] = test system: Cell membrane; experiment: Disruption of bacterial cell membrane in methicillin-resistant Staphylococcus aureus ATCC 33591 assessed as severe depression on the cell surface,cell rupture and leakage of intracellular components at 4XMIC incubated for 4 hrs by FESEM analysis; assay type: subcellular
[15] = test system: Enterococcus; experiment: Antibacterial activity against vancomycin-resistant Enterococcus 80 assessed as inhibition of bacterial growth incubated for 24 hrs by broth microdilution method; assay type: functional
[16] = test system: Cell membrane; experiment: Disruption of bacterial cell membrane in Escherichia coli ATCC 25922 assessed as increase in red fluorescence intensity at 4XMIC incubated for 2 hrs by MycoLightGreen1198/PI staining based confocal laser scanning microscopy
[17] = test system: Staphylococcus aureus; experiment: Antibacterial activity against methicillin-resistant Staphylococcus aureus 222 assessed as inhibition of bacterial growth incubated for 24 hrs by broth microdilution method; assay type: functional
[18] = test system: Cell membrane; experiment: Disruption of bacterial cell membrane in methicillin-resistant Staphylococcus aureus ATCC 33591 assessed as increase in red fluorescence intensity at 4XMIC incubated for 2 hrs by MycoLightGreen1198/PI staining based confocal laser scanning microscopy; assay type: subcellular
[19] = test system: Staphylococcus aureus; experiment: Disruption of biofilm formation in methicillin-resistant Staphylococcus aureus ATCC 33591 assessed as inhibition of biofilm formation at MIC measured after 24 hrs by crystal violet staining based analysis; assay type: functional
[20] = Cytotoxicity against human A549 cells assessed as reduction in cell viability measured after 48 hrs by CCK8 assay; assay type: toxicity, cell-based
[21] = test system: Mesomycoplasma hyopneumoniae; experiment: Anti-mycoplasma activity against Mycoplasma hyopneumoniae LH assessed as inhibition of mycoplasma growth measured after 7 days by broth microdilution method; assay type: functional; conditions: 168 h, time 7 day
[22] = test system: Staphylococcus aureus; experiment: Antibacterial activity against methicillin-resistant Staphylococcus aureus ATCC 33591 infected in Kunming mouse assessed as reduction in inflammatory cell infiltration in lungs at 3 to 10 mg/kg, ip for 2 days starting from 1 hr post-infection by hematoxylin-eosin staining based analysis; assay type: functional, organism-based; conditions: dose 3-10 mg/kg, time 2.0 day
[23] = test system: Cell membrane; experiment: Disruption of bacterial cell membrane in methicillin-resistant Staphylococcus aureus ATCC 33591 assessed as increase in number of surface folds and atrophy at MIC incubated for 4 hrs by FESEM analysis; assay type: subcellular
[24] = test system: Acinetobacter baumannii; experiment: Antibacterial activity against carbapenem-resistant Acinetobacter baumannii 882 assessed as inhibition of bacterial growth incubated for 24 hrs by broth microdilution method; assay type: functional
[25] = test system: Escherichia coli; experiment: Bactericidal activity against Escherichia coli ATCC 25922 assessed as reduction in bacterial colonies formation at 2XMIC incubated for 12 hrs in MHB followed by culturing on agar plate for 24 hrs by time-kill kinetics based analysis; assay type: functional; design: scale not given: the % may be the effect or the level left; conditions: time 36 hrs
[26] = test system: Escherichia coli; experiment: Disruption of biofilm formation in Escherichia coli ATCC 25922 assessed as inhibition of biofilm formation at 4XMIC measured after 24 hrs by crystal violet staining based analysis; assay type: functional
[27] = test system: Acinetobacter baumannii; experiment: Antibacterial activity against Acinetobacter baumannii ATCC 19606 assessed as inhibition of bacterial growth incubated for 24 hrs by broth microdilution method; assay type: functional
[28] = test system: Mesomycoplasma hyorhinis; experiment: Anti-mycoplasma activity against Mycoplasma hyorhinis BTS-7 NCTC10130 assessed as inhibition of mycoplasma growth measured after 7 days by broth microdilution method; assay type: functional; conditions: BTS-7 NCTC10130, 168 h, time 7 day
[29] = test system: Staphylococcus aureus; experiment: Bactericidal activity against methicillin-resistant Staphylococcus aureus ATCC 33591 assessed as reduction in bacterial colonies formation at 2XMIC incubated for 12 hrs in MHB followed by culturing on agar plate for 24 hrs by time-kill kinetics based analysis; assay type: functional; design: scale not given: the % may be the effect or the level left; conditions: time 36 hrs
[30] = test system: Mycoplasmoides gallisepticum; experiment: Potency index, ratio of tiamulin MIC to test compound MIC against anti-mycoplasma activity against Mycoplasma gallisepticum R NCTC10115; assay type: functional
[31] = Cmax in Sprague-Dawley rat at 1 mg/kg, iv by LC-MS analysis; assay type: ADME, organism-based; design: dose 1 mg/kg, route iv; conditions: in vivo
[32] = test system: Cell membrane; experiment: Disruption of bacterial cell membrane in methicillin-resistant Staphylococcus aureus ATCC 33591 assessed as reduction in green fluorescence intensity at MIC incubated for 2 hrs by MycoLightGreen1198/PI staining based confocal laser scanning microscopy; assay type: subcellular
[33] = test system: Cell membrane; experiment: Disruption of bacterial cell membrane in methicillin-resistant Staphylococcus aureus ATCC 33591 incubated for 4 hrs by FESEM analysis; assay type: subcellular
[34] = Clearance in Sprague-Dawley rat at 1 mg/kg, iv by LC-MS analysis; assay type: ADME, organism-based; conditions: in vivo
[35] = AUC(0 to t) in Sprague-Dawley rat at 1 mg/kg, iv by LC-MS analysis; assay type: ADME, organism-based; design: dose 1 mg/kg, route iv; conditions: in vivo

## C=C[C@]1(C)C[C@@H](OC(=O)CSc2nc(-c3cc[n+](Cc4ccc(C)cc4)cc3)cs2)[C@]2(C)[C@H](C)CC[C@]3(CCC(=O)[C@H]32)[C@@H](C)[C@@H]1O.[Br-]
[1]
  MIC: 0.03 µg/mL
[2]
  Activity: 4.5 log10CFU/ml
[3]
  MIC: 0.015 µg/mL
[4]
  fold change (FC): 6
[5]
  MRT: 34.8 min
[6]
  CC50 at 48 h: 89.8 µM
[7]
  Activity: Dose-Dependent Effect
[8]
  Activity: Active
[9]
  survival at 5 mg/kg: 57.1%
[10]
  Ratio: 8
[11]
  Tmax: 1.8 min
[12]
  Activity: Active
[13]
  Activity: Active
[14]
  Activity: Active
[15]
  MIC: 2 µg/mL
[16]
  Activity: 100%
[17]
  MIC: 1 µg/mL
[18]
  Activity: 100%
[19]
  inhibition (INH): 57.97%
[20]
  CC50 at 48 h: > 100 µM
[21]
  MIC: 0.002 µg/mL
[22]
  Activity: Active
[23]
  Activity: Active
[24]
  MIC: 8 µg/mL
[25]
  Activity: 100%
[26]
  inhibition (INH): 84.02%
[27]
  MIC: 1 µg/mL
[28]
  MIC: 0.008 µg/mL
[29]
  Activity: 100%
[30]
  Ratio: 10
[31]
  Cmax: 9670 ng/mL
[32]
  Activity: Active
[33]
  Activity: Dose-Dependent Effect
[34]
  clearance: 31.7 mL/min/kg
[35]
  AUC(0-t): 539 ng·h/mL
